Data on four compounds can be found in patent publication US9944607B2, “Thiohydantoin derivatives and uses thereof” (Whitehead Institute for Biomedical Research, priority 2012, dated 2018).

Read-outs that look alike come from different tables or passages of the source.

What is called IC50 is the concentration at which inhibition is half-maximal.

Series [1] relates to Saccharomyces cerevisiae W303. The series can be described thus: Secondary S. cerevisiae inhibition in glycerol media (OD600). Particulars: for IC50: Saccharomyces cerevisiae. The series is classed as cell-based. The source says: (§1) Cell Lines. • Candida albicans CaCi-2; a drug-resistant clinical isolate was provided by the Whitehead Institute (Redding et al., Clin. Infect. Dis. 1994, 18(2):240-2). This strain was used for the primary assay. • Candida albicans CaCi-17; a strongly drug-resistant clinical isolate was provided by the Whitehead Institute (Redding et al., Clin. Infect. Dis. 1994, 18(2):240-2). This strain was used for the primary assay • Saccharyomyces cerevisiae W303-1a (ATCC 208352); a well-characterized Saccharomyces strain used for determination of glycolytic vs. respiratory metabolism, as well as in the mitochondrial disruption assay. • Candida glabrata (ATCC 2001); used for determination of glycolytic vs. respiratory metabolism. • NIH-3T3 mammalian fibroblasts (ATCC; CRL no.1658); used for mammalian toxicity assays. […]
(§2) Saccharomyces, while not a major human pathogen, is a useful lab model with well-developed genetic tools available. Candida glabrata is an increasingly prominent clinical problem for immune-compromised patients but with fewer genetic tools available with which to study it. These organisms can utilize alternative metabolic pathways to support growth and survival depending on the carbon source. By comparing the concentration-dependent inhibition of yeast growth in glycerol relative to glucose media, a quantitative assessment of a compound's ability to disrupt respiration can be determined. […].
(§3) Clear, flat bottom, black 384-well plates (Corning Catalog no. 3712BC; Lot no. 35808016); Amphotericin B (Sigma Catalog no. A2411) 15 mM stock solution in DMSO; Pen/Strep (Gibco Catalog no. 10378-016; Lot no21040170) 100× in PBS.
(§4) Synthetic defined growth medium. Complete Supplement Mixture; (Sunrise Science, Catalog No. 1001-100); Yeast Nitrogen Base without ammonium sulfate (MP Biomedicals, Catalog No. 4027-012); Glycerol (Sigma Catalog No. G-9012). • Prepare medium by dissolving 0.79 g Complete Supplement Mixture and 1.7 g Yeast Nitrogen Base in 800 mL water. • Add 20 mL of glycerol. Adjust final volume to 1000 mL. Filter sterilize.
(§5) Fungal Inoculum. Test Strains: C. glabrata (ATCC 2001) and Saccharomyces cerevisiae W303. • Inoculate 100 μL of yeast from cryopreserved stock into 250 mL shaker flask containing 20 mL growth medium. Shake at 30° C. overnight (about 16 hours). • Read OD 600 of 1 mL of fungal culture in a cuvette using a standard optical density reader (Eppendorf BioPhotometer Plus), with growth medium as a background blank. • Dilute to desired volume of fungal inoculum to produce an OD600 reading of 0.005 (S. cerevisiae) or 0.004 (C. glabrata).
(§6) Procedures • Use a Thermo Combi nL to dispense 20 μL/well of assay media into all wells. • Add 2 μL of Amphotericin B to control wells. • Pin 100 nL of test compound from compound plates into assay plates using a CyBi-Well pin tool. • Dispense 20 μL/well of culture into the assay media in all wells. • Incubate the plates in a humidified (90% humidity) Liconic incubator at 37° C. without agitation for 48 hours. • Shake plates briefly. • Read OD600 of wells on a standard plate reader as measure of relative fungal growth. Envision (Perkin Elmer) plate reader settings: Ex Photometric 600, Top read. Secondary Glucose Assay Protocol (AID 623971, 623967, 624013, 624025) Materials and Reagents

Series [2] has as its system C. glabrata (ATCC 2001). The series can be described thus: Secondary C. glabrata inhibition in glycerol media (OD600). The series is classed as cell-based, Candida glabrata. The following applies: for IC50: Nakaseomyces glabratus.
Text: as §1, §2, §3, §4, §5, §6

For a further series, the system named is Candida albicans CaCi-17. The series can be described thus: Primary assay: C. albicans CaCi-17 growth inhibition (Alamar Blue). The series is classed as cell-based. The following applies: for IC50: Candida albicans. (Resazurin is reduced to fluorescent resorufin, in cell work by metabolically active cells.)
Series [3] relates to C. glabrata (ATCC 2001). The series can be described thus: Secondary C. glabrata inhibition in glucose media (OD600). The series is classed as cell-based, Candida glabrata. The following applies: Nakaseomyces glabratus.
Text: as §1, §2, §6
Clear, flat bottom, black 384-well plates (Corning, Catalog No. 3712BC; Lot No. 35808016); Amphotericin B (Sigma, Catalog no. A2411) 15 mM stock solution in DMSO; Pen/Strep (Gibco, Catalog No. 10378-016; Lot no21040170) 100× in PBS.
Synthetic defined growth medium. Complete Supplement Mixture; (Sunrise Science, Catalog No. 1001-100); Yeast Nitrogen Base without ammonium sulfate (MP Biomedicals, Catalog No. 4027-012); Glucose (Sigma, Catalog No. G7021). • Prepare medium by dissolving 0.79 g of Complete Supplement Mixture and 1.7 g of Yeast Nitrogen Base in 800 mL of water. • Add 20 g of glucose. Adjust final volume to 1000 mL. Filter sterilize.
Fungal Inoculum. Test Strains: C. glabrata (ATCC 2001) and Saccharomyces cerevisiae W303. • Inoculate […] of yeast from cryopreserved stock into a 250 mL shaker flask containing 20 mL of growth medium. Shake at 30° C. overnight (about 16 hours). • Read OD 600 of 1 mL of fungal culture in a cuvette using a standard optical density reader (Eppendorf BioPhotometer Plus), with growth medium as a background blank. • Dilute to desired volume of fungal inoculum to produce an OD600 reading of 0.005 (S. cerevisiae) or 0.004 (C. glabrata).
as §6, with “read. 4.5.” for “read.”, “Mitochondrial Disruption” for “Glucose”, “Assay” for “Assay Protocol”, “No. 624062” for “623971, 623967, 624013, 624025) Materials”, “624068)” for “Reagents”

The subject of series [4] is Candida albicans strain SC5314. The series can be described thus: Colony counts over time, C. albicans SC5314 in RPMI (FIG. 14). It counts as cell-based. Particulars: colonies counted after 24 and 48 hours. How it is done:
Compound I-B-4 (ML316) was studied in fluconazole-sensitive Candida albicans strain SC5314. The SC5314 strain was inoculated into RPMI media at 10^3 CFU/mL in the presence or absence of 5 μM I-B-4 (ML316) and 32 ug/mL fluconazole. Colonies were plated from the cultures after 24 and 48 hours and counted.

Consider `CCOC(=O)N1C(=O)C2(CCCCC2)N(c2ccc(F)cc2)C1=S` [CID 56604860, Ethyl 1-(4-fluorophenyl)-4-oxo-2-thioxo-1,3-diazaspiro[4.5]decane-3-carboxylate], for which the “Reduction in potency when glucose is available instead of glycerol, S. cerevisiae” value in series [1] is “greater than 250 fold”. Further, the IC50 in series [1] (W303, read-out: Growth inhibition of S. cerevisiae on glycerol IC50) is 0.004 µM; with C. glabrata (ATCC 2001) [2] (ATCC2001, read-out: Growth inhibition of C. glabrata on glycerol IC50), 0.011 µM; with Candida albicans CaCi-17 (CACI17, read-out: C. albicans CaCi-17 growth inhibition IC50), 1 µM; in the series on C. glabrata (ATCC 2001) [3] (ATCC2001, read-out: Growth inhibition of C. glabrata on glucose IC50), more than 3 µM. In series [1] (Table 13), the “Fold Selective (Glucose IC50/Glycerol IC50), S. cerevisiae” value is reported as more than 750x. The “Reduction in potency when glucose is available instead of glycerol, C. glabrata” value in the series with C. glabrata (ATCC 2001) [2] is on record as “greater than 250 fold”. Further, the “Fold Selective (Glucose IC50/Glycerol IC50), C. glabrata” value with C. glabrata (ATCC 2001) [2] (Table 13) is more than 272x. In addition, in the series with Candida albicans CaCi-17 (Table 12), the “Fold Selective (Anti-target IC50/Target IC50), fibroblast toxicity vs CaCi-17 growth inhibition” value is more than 37x. Also, in series [4] (5 μM I-B-4), the “Cytotoxicity to fluconazole-sensitive C. albicans SC5314, compound alone” value is recorded as “cytotoxic”. In series [4] (5 μM I-B-4 and 32 ug/mL fluconazole), the “Cytotoxicity to fluconazole-sensitive C. albicans SC5314, combination with fluconazole (FCZ)” value is “cytotoxic”.
As to `CCOC(=O)N1C(=O)C2(CCCCC2)N(c2ccc(C)cc2)C1=S` [compound 3889161], the IC50 in series [1] (W303, 48 h, read-out: Growth Inhibition Activity, IC50 (μM), S. cerevisiae (n = 3) On glycerol) is 0.011 µM; in the series on C. glabrata (ATCC 2001) [2] (ATCC2001, 48 h, read-out: Growth Inhibition Activity, IC50 (μM), C. glabrata (n = 3) On glycerol) it was 0.041 µM; in the series on Candida albicans CaCi-17 (CACI17, 48 h, read-out: Growth Inhibition Activity, IC50 (μM), C. albicans (n = 3) CaCi-17), 8.5 µM; in the series with C. glabrata (ATCC 2001) [3] (ATCC2001, 48 h, read-out: Growth Inhibition Activity, IC50 (μM), C. glabrata (n = 3) On glucose) it was more than 3 µM.
With `CCOC(=O)N1C(=O)C2(CCCCC2)N(c2cccc(C)c2)C1=S` [compound 56604823], the IC50 is 0.019 µM in series [1] (W303, Table 8, n = 3, glycerol media, 48 hours, tested up to 3 μM, read-out: Growth Inhibition Activity, IC50 (μM), S. cerevisiae (n = 3) On glycerol); 0.034 µM in the series on C. glabrata (ATCC 2001) [2] (ATCC2001, Table 8, n = 3, glycerol media, 48 hours, tested up to 3 μM, read-out: Growth Inhibition Activity, IC50 (μM), C. glabrata (n = 3) On glycerol); 8.2 µM in the series with Candida albicans CaCi-17 (CACI17, Table 4, n = 3, 48 hours, tested up to 26 μM, read-out: Growth Inhibition Activity, IC50 (μM), C. albicans (n = 3) CaCi-17); more than 3 µM in the series on C. glabrata (ATCC 2001) [3] (ATCC2001, Table 8, n = 3, glucose media, 48 hours, tested up to 3 μM, read-out: Growth Inhibition Activity, IC50 (μM), C. glabrata (n = 3) On glucose).
In the case of `C/C=C/C1[C@H]2C[C@@H](C)CC[C@@H]2C(C)=C[C@H]1C(=O)c1c(O)c(-c2ccc(O)cc2)c[nH]c1=O` (some centres unmarked) [ilicicolin H, reference compound], the concentration for half-maximal inhibition (IC50) is 0.03 µM in series [1] (W303, figure legends and Tables 9, 10, 13, AID 623969, read-out: Growth inhibition of S. cerevisiae on glycerol IC50); 2.6 µM with C. glabrata (ATCC 2001) [2] (ATCC2001, figure legends and Tables 9, 10, 13, AID 623965, read-out: Growth inhibition of C. glabrata on glycerol IC50); more than 3 µM in the series with Candida albicans CaCi-17 (CACI17, Tables 9, 10, 12, AID 623897, read-out: C. albicans CaCi-17 growth inhibition IC50); more than 3 µM in the series with C. glabrata (ATCC 2001) [3] (ATCC2001, figure legends and Tables 9, 10, 13, AID 623967, read-out: Growth inhibition of C. glabrata on glucose IC50).
